Data: US20200187504A1, “ENVIRONMENTALLY FRIENDLY COMPOSITIONS FOR FOLIAR AND GRANULAR CONTROL OF WEEDS” (priority 2018, published 2020)

Experiments:
Perennial Grass = experiment: Weedy turf test plots: perennial grass cover and turf stress after treatment; type: in vivo; details: for Perennial Grass 8 months: cover in weedy turf plots of Table 4, 8 months, B and N rates per treatment; for Perennial Grass 10 months: cover in weedy turf plots of Table 4, 10 months; for Perennial Grass 12 months: cover in weedy turf plots of Table 4, 12 months; for 8-12 month average grass cover: weedy turf plots of Table 4
From the text: (§1) Then, multiple plots were installed in weedy turf for liquid boron fertilizer application. The plots listed in Table 4 were used for varying application rates of B1300 where the amount of liquid applied to each plot varied. The sprayer was weighed before and after each application and the application rate determined by calculation knowing the concentration of B1300 liquid applied. The results of foliar liquid applied in controlling invasive species is reported in FIG. 3 and compared to an untreated control. As presented in FIG. 3, the plots were monitored 1 month, 8 months and 10 months after four different application rates of liquid B1300 (47 pounds B/acre, 62 pounds B/acre, 75 pounds B/acre, and 93 pounds B/acre), which show the effectiveness of each rate in limiting the growth of invasive plant species. The weedy plants controlled included dandelion (Taraxacum officiniale), oxeye daisy (Chrysanthemum leucanthemum), black medic (Medicago lupulina), Canadian thistle (Circium arvense), and white clover (Trifolium repens). The desirable perennial grasses that were unharmed or stimulated included Kentucky bluegrass (Poa pratensis) and smooth brome (Bromus inermis). The effectiveness of relevant commercial products targeting control of invasive plant species are shown in FIG. 5C and include glyphosate, Natria FeHEDTA and 2-4 D.
(§2) Table 4 lists the tested plots with various treatment using granular and/or liquid boron formulations alone, or in combination with another micronutrient Cu and/or macronutrients including N, P, K. FIG. 3 and FIGS. 5A-5E represent phytotoxicity effect on weed control by investigating coverage after the desired treatments from the test plots listed in Table 4. Also, FIGS. 9A-9D to FIGS. 25A-25D present actual vegetation conditions of each plot after the desired treatment described in Table 4.
In this example the fertilizer was applied to weedy turf grass in September with approximately 50% invasive plant cover and then monitored again one, eight and ten months after initial application. At this North American field site snow covered the ground from approximately December through March. The weedy plants controlled included dandelion (Taraxacum officiniale), oxeye daisy (Chrysanthemum leucanthemum), black medic (Medicago lupulina), Canadian thistle (Circium arvense), and white clover (Trifolium repens). The desirable perennial grasses that were unharmed or stimulated included Kentucky bluegrass (Poa pratensis) and smooth brome (Bromus inermis).

weedy turf = experiment: Weedy turf test plots: Vegetation Ranking Index; type: in vivo; details: healthy perennial grass cover x 3.5 minus 2.5 x stressed/unhealthy grass minus weed cover
From the text: as §2

Forbs (Weeds) = experiment: Weedy turf test plots: forb (weed) cover and weed control after treatment; type: in vivo; details: for control of invasive weeds, in words: Fall-treated turf plots of Table 4, 10-month study period, rate as in the label; for Forbs (Weeds) 8 months: cover in weedy turf plots of Table 4, 8 months; for Forbs (Weeds) 10 months: cover in weedy turf plots of Table 4, 10 months; for Forbs (Weeds) 12 months: cover in weedy turf plots of Table 4, 12 months; for 8-12 month average weed cover: weedy turf plots of Table 4
From the text: as §1, with “the plots were monitored 1 month, 8 months and 10 months after four different application” left out
as §2
[…] At this North American field site snow covered the ground from approximately December through March. The weedy plants controlled included dandelion (Taraxacum officiniale), oxeye daisy (Chrysanthemum leucanthemum), black medic (Medicago lupulina), Canadian thistle (Circium arvense), and white clover (Trifolium repens). The desirable perennial grasses that were unharmed or stimulated included Kentucky bluegrass (Poa pratensis) and smooth brome (Bromus inermis).

[1] = test system: selected grasses and forbs; details: greenhouse trials, Munshower and others (2006); cited from earlier work
seed geranium = details: Lee et al. (1996), in combination with nitrogen, phosphorus, and potassium; cited from earlier work
French marigold = details: Choi et al. (1996); cited from earlier work
prostrate knotweed = experiment: Foliar spray on prostrate knotweed, compared with Roundup; type: in vivo, Polygonum aviculare
From the text: In this example, liquid B1300 product was formulated by dissolving 1300 grams of 20.5% Boron (Solubor®) into 4 gallons of water for a foliar spray to target plants, either with or without ‘drizzle down’ of the liquid into the roots. Also, liquid B1440 product was formulated by dissolving 1440 grams of 20.5% Boron (Solubor®) into 4 gallons of water. Many invasive plants are controlled by B1300 foliar spray as presented in FIGS. 1A-1C or B1440 foliar spray as presented in FIGS. 2A-2C. Annual invasive plant species are easily controlled by phytotoxic nutrient addition since they have to grow from seed every year and have the least reliance on well—developed/extensive root systems and/or taproots that store plant resources. Annual invasive plants also have to grow from near the soil surface every year where it is easiest to add phytotoxic micronutrients and change the soil chemistry to inhibit or control the annual plant's growth. Perennial invasive plants grow every year from the previous years roots and take generally two forms: tap root species and extensive well-developed root systems. In general, it is difficult to control these invasive perennial plants compared to annual plants due to roots with plant resources deep in the soil. […]

chlorophyllitic plants = details: as little as; cited from earlier work
humans = details: 2005 carcinogen assessment guidelines; cited from earlier work

## O=C(O)COc1ccc(Cl)cc1Cl [2-4D (S), 2,4-Dichlorophenoxyacetic acid]
Perennial Grass
  Perennial Grass 8 months: 90%
  Perennial Grass 10 months: 85%
  Perennial Grass 12 months: 78%
  8-12 month average grass cover: 84%
Weedy turf
  Vegetation Ranking Index: 13
Forbs (Weeds)
  control of invasive weeds, in words: short-term treatment effect
  Forbs (Weeds) 8 months: 5%
  Forbs (Weeds) 10 months: 15%
  Forbs (Weeds) 12 months: 22%
  8-12 month average weed cover: 14%

## [B] [B, boron]
[1]
  solution concentration at which plants performed adequately: up to 40 mg B/L
Seed geranium
  concentration of nutrient solution inducing toxicity symptoms: 500 µM
French marigold
  concentration inducing micro-nutrient toxicity: 500 µM

## [Cu] [Cu, copper]
Seed geranium
  concentration of nutrient solution inducing toxicity symptoms: 500 µM
French marigold
  concentration inducing micro-nutrient toxicity: 4000 µM

## [Fe] [Fe, iron]
Seed geranium
  concentration of nutrient solution inducing toxicity symptoms: 500 µM
French marigold
  concentration inducing micro-nutrient toxicity: 4000 µM

## O=C(O)CNCP(=O)(O)O [Glyphosate (S), glyphosate]
Prostrate knotweed; along a gravel trail, FIG. 26D
  effectiveness on prostrate knotweed, in words: highly effective
Prostrate knotweed; plots put out 3 hours before a heavy rain (~1.0")
  effectiveness in rain affected test: highly effective
Perennial Grass; Fall-treated turf plots of Table 4, 10-month study period, rate as in the label
  stress on perennial turf grasses, in words: has no perennial grasses
Perennial Grass
  Perennial Grass 8 months: 0%
  Perennial Grass 10 months: 0%
  Perennial Grass 12 months: 0%
  8-12 month average grass cover: 0%
Weedy turf
  Vegetation Ranking Index: −133
Forbs (Weeds)
  control of invasive weeds, in words: dominated by weeds by mid-summer
  Forbs (Weeds) 8 months: 10%
  Forbs (Weeds) 10 months: 95%
  Forbs (Weeds) 12 months: 90%
  8-12 month average weed cover: 65%
Forbs (Weeds); about 30 days after treatment
  effectiveness in treated turf plots: 100%
Forbs (Weeds); next year after treatment, pre-treatment ~50% weed cover
  weed cover: ~75%
Chlorophyllitic plants
  application rate effective at causing photosynthetic disruption: 0.75 pounds active ingredient per acre

## [Mn+2] [Mn, manganese]
Seed geranium
  concentration of nutrient solution inducing toxicity symptoms: 1000 µM
French marigold
  concentration inducing micro-nutrient toxicity: 2000 µM

## [Mo] [Mo, molybdenum]
Seed geranium
  concentration of nutrient solution inducing toxicity symptoms: 250 µM
French marigold
  concentration inducing micro-nutrient toxicity: 1000 µM

## [Zn] [Zn, zinc]
Seed geranium
  concentration of nutrient solution inducing toxicity symptoms: 500 µM
French marigold
  concentration inducing micro-nutrient toxicity: 5000 µM

## OB(O)O [boric acid]
humans
  U.S. EPA carcinogenicity classification: not likely to be carcinogenic to humans
